In US8501746B2, “Organic compounds” (Xenon Pharmaceuticals Inc., priority 2006, dated 2013) one finds melting point and IC50 data, which are given here for 22 compounds.

Where only a bound is given, the exact number is not on record here.

The target of data set [1] is T1, stearoyl-CoA desaturase (SCD1) (Mus musculus, UniProt P13516).
T1 construct: Reactions are started by adding 50 μL of microsomes (1.25 mg/mL); from tissue; host or cells: liver microsomes of male ICR outbred mice on a high-carbohydrate, low-fat diet
T1 sequence (P13516 1-355): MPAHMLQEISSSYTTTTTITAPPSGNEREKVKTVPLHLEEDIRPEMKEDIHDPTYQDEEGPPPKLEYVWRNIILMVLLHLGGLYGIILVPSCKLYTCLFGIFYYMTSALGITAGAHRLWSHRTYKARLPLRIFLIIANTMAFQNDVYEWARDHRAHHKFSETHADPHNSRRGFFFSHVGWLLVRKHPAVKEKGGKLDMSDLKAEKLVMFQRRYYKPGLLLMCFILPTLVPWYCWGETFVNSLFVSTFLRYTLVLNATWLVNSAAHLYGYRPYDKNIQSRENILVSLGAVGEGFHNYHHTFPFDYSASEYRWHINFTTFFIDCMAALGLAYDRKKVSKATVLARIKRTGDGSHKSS
Kind of data set: SCD microsomal assay: release of 3H2O from [9,10-3H]stearoyl-CoA in mouse liver microsomes. Format: biochemical. To be noted: 15 min incubation, 25° C. The procedure:
Measuring Stearoyl-CoA Desaturase Inhibition Activity of a Test Compound Using Mouse Liver Microsomes
Livers are immediately rinsed with cold 0.9% NaCl solution, weighed and minced with scissors. All procedures are performed at 4° C. unless specified otherwise. Livers are homogenized in a solution (1/3 w/v) containing 0.25 M sucrose, 62 mM potassium phosphate buffer (pH 7.0), 0.15 M KCl, 15 mM N-acetylcysteine, 5 mM MgCl2, and 0.1 mM EDTA using 4 strokes of a Potter-Elvehjem tissue homogenizer. The homogenate is centrifuged at 10,400×g for 20 min to eliminate mitochondria and cellular debris. The supernatant is filtered through a 3-layer cheesecloth and centrifuged at 105,000×g for 60 min. The microsomal pellet is gently resuspended in the same homogenization solution with a small glass/teflon homogenizer and stored at −70° C. The absence of mitochondrial contamination is enzymatically assessed. The protein concentration is measured using bovine serum albumin as the standard.
Incubation of Mouse Liver Microsomes with Test Compounds:
Desaturase activity is measured as the release of ^3H2O from [9,10-^3H]stearoyl-CoA. Reactions per assay point conditions are as follows: 2 μL 1.5 mM stearoyl-CoA, 0.25 μL 1 mCi/mL ^3H stearoyl CoA, 10 μL 20 mM NADH, 36.75 μL 0.1 M PK buffer (K2HPO4/NaH2PO4, pH 7.2). The test compound or control solution is added in a 1 μL volume. […] The plates are mixed and after 15 min incubation on a heating block (25° C.), the reactions are stopped by the addition of 10 μL 60% PCA. An aliquot of 100 μL is then transferred to a filter plate pretreated with charcoal and the plate centrifuged at 4000 rpm for 1 minute. The flow through containing the ^3H2O released by the SCD1 desaturation reaction is added to scintillation fluid and the radioactivity measured in a Packard TopCount. The data is analysed to identify the IC50 for test compounds and reference compounds.
The activity was defined in terms of % SCD enzyme activity remaining at the desired concentration of the test compound or as the IC50 concentration.
On the technique in general: Liver microsomes are a subcellular fraction often used to study metabolism.

As usually defined, the melting point is the temperature, or range, at which the solid turns liquid. What is called IC50 is the concentration needed to halve the response being measured. A high value points to weaker potency in that assay. As to `Cc1nc(-n2ccc(OCC3CC3)cc2=O)sc1C(=O)NCc1ccccc1` [Example 1.1, N-Benzyl-2-(4-(cyclopropylmethoxy)-2-oxopyridin-1(2H)-yl)-4-methylthiazole-5-carboxamide], the melting point was in the range of 218 to 220 °C. This compound also gave an IC50 in data set [1] of 400 nM. Taken in the same sequence, the figures for `COc1ccn(-c2nc(C)c(C(=O)NCc3ccccc3)s2)c(=O)c1` [Example 1.2, N-Benzyl-2-(4-methoxy-2-oxopyridin-1(2H)-yl)-4-methylthiazole-5-carboxamide] were 205 to 208 °C and 90 nM.

In turn, `Cc1nc(-n2ccc(OCc3ccccc3)cc2=O)[nH]c1C(=O)NCc1ccccc1` [Example 1.7, N-Benzyl-2-(4-(benzyloxy)-2-oxopyridin-1(2H)-yl)-4-methyl-1H-imidazole-5-carboxamide] displayed a melting point of 183 to 184 °C. Further, in data set [1], inhibition was half-maximal at 220 nM (IC50). Turning to `Cc1nc(-n2ccc(O)cc2=O)sc1C(=O)NCc1ncco1` [Example 1.22, 2-(4-Hydroxy-2-oxopyridin-1(2H)-yl)-4-methyl-N-(oxazol-2-ylmethyl)thiazole-5-carboxamide], the IC50 in data set [1] was determined as 430 nM. `Cc1nc(-n2cccc(C(F)(F)F)c2=O)sc1C(=O)NCc1ccccc1` [Example 3.5, N-Benzyl-4-methyl-2-(2-oxo-3-(trifluoromethyl)pyridin-1(2H)-yl)thiazole-5-carboxamide] yielded a melting point of 203 to 204 °C. For the same compound, the midpoint of inhibition in data set [1], the IC50, lay at 150 nM.

Turning to `Cc1nc(-n2ccccc2=O)sc1C(=O)NCc1ccc(F)cc1` [Example 3.11, N-(4-Fluorobenzyl)-4-methyl-2-(2-oxopyridin-1(2H)-yl)thiazole-5-carboxamide], the melting point was in the range of 170 to 172 °C. The IC50 in data set [1] stood at 230 nM. Taken in the same sequence, the figures for `Cc1cc(-n2ccc(OCc3ccccc3)cc2=O)oc1C(=O)NCc1ccccc1` [Example 3.19, N-Benzyl-5-(4-(benzyloxy)-2-oxopyridin-1(2H)-yl)-3-methylfuran-2-carboxamide] were 191 to 192 °C and 5700 nM.

Compound `Cc1nc(-n2ccc3c(O)cccc3c2=O)sc1C(=O)NCc1ccccc1` [Example 7.1, N-Benzyl-2-(5-hydroxy-1-oxoisoquinolin-2(1H)-yl)-4-methylthiazole-5-carboxamide] returned a melting point of 218 to 221 °C. This compound returned an IC50 in data set [1] of 30 nM.

As for `Cc1cc(-n2ccc(O)cc2=O)sc1C(=O)NCc1cccnc1` [Example 7.6, 5-(4-Hydroxy-2-oxopyridin-1(2H)-yl)-3-methyl-N-(pyridin-3-ylmethyl)thiophene-2-carboxamide], the melting point is 110 °C (dec.). The compound further displayed an IC50 in data set [1] of 800 nM. Turning to `CCOC(=O)c1sc(-n2ccc(OCCC3CC3)cc2=O)nc1C` [Example 15.2, Ethyl 2-(4-(2-Cyclopropylethoxy)-2-oxopyridin-1(2H)-yl)-4-methylthiazole-5-carboxylate], the melting point fell in the range of 188 to 190 °C. On the same count and under the same terms, for `CCOC(=O)c1sc(-n2ccc(OCc3ccc(F)cc3)cc2=O)nc1C` [Example 17.1, Ethyl 2-(4-(4-Fluorobenzyloxy)-2-oxopyridin-1(2H)-yl)-4-methylthiazole-5-carboxylate] the value was 214 to 217 °C; for `CCOC(=O)c1sc(-n2ccc(OCc3ccc(C(F)(F)F)o3)cc2=O)nc1C` [Example 17], 196 to 198 °C. Compound `Cc1nc(-n2ccc(Oc3ccccc3)cc2=O)sc1C(=O)NCc1ccccc1` [Example 18, N-Benzyl-4-methyl-2-(2-oxo-4-phenoxypyridin-1(2H)-yl)thiazole-5-carboxamide] yielded a melting point of 67 to 70 °C.

In turn, `Cc1nc(-n2ccc(CCc3ccccc3)cc2=O)sc1C(=O)NCc1ccccc1` [Example 19, N-benzyl-4-methyl-2-(2-oxo-4-phenethylpyridine-1(2H)-yl)thiazole-5-carboxamide] had a melting point of 149 to 150 °C. Still for that read-out and setting: as for `Cc1nc(-n2ccc(C3CC3)cc2=O)sc1C(=O)NCc1ccccc1` [Example 19.1, N-Benzyl-2-(4-cyclopropyl-2-oxopyridin-1(2H)-yl)-4-methylthiazole-5-carboxamide], the figure is 149 to 151 °C. On the same count and under the same terms, as for `Cc1ccn(-c2nc(C)c(C(=O)NCc3ccccc3)s2)c(=O)c1` [Example 20, N-Benzyl-4-methyl-2-(4-methyl-2-oxopyridin-1(2H)-yl)thiazole-5-carboxamide], the figure is 145 to 147 °C. Compound `Cc1nc(-n2ccc(OCc3c(C)noc3C)cc2=O)sc1C(=O)NCc1ccccc1` [Example 21.13, N-benzyl-2-(4-((3,5-dimethylisoxazol-4-yl)methoxy)-2-oxopyridin-1(2H)-yl)-4-methylthiazole-5-carboxamide] returned an IC50 in data set [1] of 180 nM. Same read-out and setting: as for `Cc1nc(-n2ccc(OCc3ccccc3)cc2=O)sc1C(=O)NCc1ccc(Cl)nc1` [Example 22.19, 2-(4-(Benzyloxy)-2-oxopyridin-1(2H)-yl)-N-((6-chloropyridin-3-yl)methyl)-4-methylthiazole-5-carboxamide], the figure is 50 nM. `Cc1cc(-n2ccc(CCc3ccccc3)cc2=O)sc1C(=O)NCc1ccccc1` [Example 24, N-benzyl-3-methyl-5-(2-oxo-4-phenethylpyridine-1(2H)-yl)thiophene-2-carboxamide] displayed a melting point of 145 to 146 °C. For `Cc1cc(-n2ccc(OCCCO)cc2=O)sc1C(=O)NCc1cccc(F)c1` [Example 25, N-(3-Fluorobenzyl)-5-(4-(3-hydroxypropoxy)-2-oxopyridin-1(2H)-yl)-3-methylthiophene-2-carboxamide], the melting point was 135 to 137 °C. In turn, `Cc1nc(-n2ccc(N3CCNC3=O)cc2=O)sc1C(=O)NCc1ccccc1` [Example 26, N-Benzyl-4-methyl-2-(2-oxo-4-(2-oxoimidazolidin-1-yl)pyridin-1(2H)-yl)thiazole-5-carboxamide] came in with a melting point greater than 300 °C. `COc1ccn(-c2nc(C)c(C(=O)NCc3ccc[n+]([O-])c3)s2)c(=O)c1` [Example 27, 3-((2-(4-methoxy-2-oxopyridin-1(2H)-yl)-4-methylthiazole-5-carboxamido)methyl)pyridine 1-oxide] registered a melting point of 255 to 257 °C.
